In article PMC12240781 (Frontiers in Pharmacology, 2025):

Key:
in vitro = settings: for Papp at 6 h, 25 μg/mL: PAMPA; for Increase in Papp: with probiotic bacteria vs control without probiotics
Protocol: Hydrophobic MultiScreen PVDF microfiltration plates with 96 wells and a pore diameter of 0.45 μm (Millipore, USA) were used as acceptor plates and as supports for the artificial membrane. Each well of the acceptor plate was impregnated with 6 μL of a 2% lecithin solution in n-dodecane, and after solvent evaporation, an artificial membrane was formed. To the corresponding wells of the acceptor plate, 200 μL of PBS buffer (pH 7.4) was added, while 300 μL of the tested compound solution in respective buffer was added to the wells of the donor plate (MultiScreen Transport Receiver Plate, Millipore, USA). All analyses were conducted in triplicate at three different pH values in the donor compartment, while the pH value in the acceptor compartment was always 7.4. The donor plate was aligned with the acceptor plate to initiate incubation. Incubation of samples was performed at 37°C in a sealed PAMPA system to minimize oxygen exposure. […] Before HPLC injection, protein precipitation was achieved by diluting a 50 μL sample from the donor compartment fivefold with acetonitrile, followed by centrifugation at 15,000 rpm for 10 min at +4°C, as described by Đanić et al. ([Ðanić et al., 2019]). Subsequently, 100 μL of the supernatant was directly injected into the HPLC system.
After determining the concentrations of the tested compounds in the donor and acceptor wells, apparent permeability coefficients (Papp) were calculated and expressed in units of cm/s based on the equation: Papp=C×−ln 1−Ca/Ceq where C is a correction factor calculated as: C=Vd×Va/Vd+Va×S×t
The equilibrium drug concentration (Ceq) was determined using mass balance: Ceq=Cd×Vd+Ca×Va/Vd+Va
In these equations, Ca represents the drug concentration in the acceptor compartment after 6 h, Ceq is the equilibrium drug concentration determined based on mass balance, Va and Vd denote the volumes of the acceptor and donor compartments, respectively, measured in milliliters, t represents the time period over which permeability was assessed, expressed in seconds, and S refers to the membrane surface area in square centimeters. The surface area of the artificial membrane was calculated to be 0.24 cm^2, as the acceptor filter membrane plates have a surface area of 0.32 cm^2 and a porosity of 75%, according to the manufacturer’s data.
Sample analysis was performed using high-performance liquid chromatography (HPLC; Dionex) with a diode array detector (DAD). […] Briefly, the chromatographic analysis was performed using a reverse-phase Zorbax Eclipse Plus C18 column (150 mm × 2.1 mm, 5 μm; Agilent Technologies, USA), coupled with a Zorbax Extend C18 guard column (12.5 mm × 2.1 mm, 5 μm; Agilent Technologies, USA). During the analysis, the column temperature was maintained at a constant 25°C, and the injection volume was 20 μL. Elution was performed using an isocratic program, with the mobile phase consisting of 50% AcN and 50% phosphate buffer adjusted to pH 3.3 with orthophosphoric acid, with the addition of 0.5 mL triethylamine as a column modifier. The total analysis time was 5 min, with a constant flow rate of the mobile phase at 0.3 mL/min. […] The eluate was monitored using a UV/DAD detector at a wavelength of 276 nm.

[1] = pH 5.8, Henderson-Hasselbalch equation
[2] = cited from earlier work

**Q.** With `Cn1cnc([N+](=O)[O-])c1Sc1ncnc2nc[nH]c12` [azathioprine] as the compound, how does the Papp at 6 h, 25 μg/mL (in vitro; Permeability [Papp x10^−7] [cm/s]) read?
**A.** 0.193 ± 0.014 ×10⁻⁶ cm/s

**Q.** And the Papp at 6 h, 25 μg/mL (in vitro; Permeability class across the PAMPA membrane)?
**A.** < 1 ×10⁻⁶ cm/s

**Q.** And the Papp at 6 h, 25 μg/mL (in vitro; pH 7.4, Permeability [Papp x10^−7] [cm/s])?
**A.** 0.134 ± 0.005 ×10⁻⁶ cm/s

**Q.** What about the “Rise of azathioprine levels in the acceptor compartment” value (in vitro; incubated with probiotics, 6 h) of the same compound?
**A.** less than 1%

**Q.** And the “Increase in Papp” value (in vitro; pH 5.8)?
**A.** 2.2 fold

**Q.** And the “Increase in Papp” value (in vitro; pH 6.5)?
**A.** 1.9 fold

**Q.** And the “Increase in Papp” value (in vitro; pH 7.4)?
**A.** 2.5 fold

**Q.** What about the “Increase of azathioprine concentration in the acceptor compartment” value (“Increase of azathioprine concentration” below) (in vitro; with probiotics vs control without probiotics (AP vs. A), pH 5.8, 6 h) of the same compound?
**A.** 18%

**Q.** What about the “Increase of azathioprine concentration” value (in vitro; with probiotics vs control without probiotics (AP vs. A), pH 7.4, 6 h) of the same compound?
**A.** 57%

**Q.** And the “Increase of azathioprine concentration” value (in vitro; with probiotics vs control without probiotics, pH 6.5, 6 h)?
**A.** 26%

**Q.** And the Ionization percentage [1]?
**A.** 0.84%

**Q.** What about the “Biopharmaceutics Classification System (BCS) class” value ([2]; low solubility and low permeability, ref Bocci et al., 2022) of the same compound?
**A.** Class IV

**Q.** What about the logP ([2]; ref Hansch et al., 1996) of the same compound?
**A.** 0.1
